These results are taken from ChEMBL document CHEMBL1151007, “Synthesis and in vitro cytotoxicity of (RS)-20-desethyl-20-substituted camptothecin analogues” (Bioorg Med Chem Lett, 1996).

SMILES strings stand for the structures.

Common to all, as to format: functional, cell-based
Assay [1] concerns DLD-1. The experiment in a line: In vitro cytotoxicity against DLD-1 human tumor cell lines.
For assay [2], the system named is A 172. The experiment in a line: In vitro cytotoxicity against A172 human tumor cell lines.
Assay [3] relates to L1210. Kind of assay: In vitro cytotoxicity against L1210 mouse leukemia tumor cell line.
The test system of assay [4] is Caov-3 cell line. The experiment in a line: In vitro cytotoxicity against CAOV-3 human tumor cell line.
Assay [5] deals with KATO III stomach cancer cell line. Kind of assay: In vitro cytotoxicity against KATO-III human tumor cell line.

`O=C(Nc1ccccc1)OCCC1(O)C(=O)OCc2c1cc1n(c2=O)Cc2cc3ccccc3nc2-1` (stereo not given): the IC50 in assay [1] is 1.2 µM; in assay [2], 0.06 µM; in assay [3], 6.87 µM; in assay [4], 3.72 µM; in assay [5], 5.38 µM.

Consider `COCCOCOCCC1(O)C(=O)OCc2c1cc1n(c2=O)Cc2cc3ccccc3nc2-1` (stereo not given), for which the 50% inhibitory concentration (IC50) stood at 15.1 µM in assay [1]; 4.04 µM in assay [2]; 4.97 µM in assay [3]; 1.92 µM in assay [4]; 53 µM in assay [5].

For the compound `O=C(Nc1ccccc1)OCC1(O)C(=O)OCc2c1cc1n(c2=O)Cc2cc3ccccc3nc2-1` (stereo not given), the IC50 in assay [1] was 4.24 µM; in assay [2], 2.77 µM; in assay [3], 2.77 µM; in assay [4], 1.58 µM; in assay [5] it was 13.1 µM.

On to `CC(C)NC(=O)OCC1(O)C(=O)OCc2c1cc1n(c2=O)Cc2cc3ccccc3nc2-1` (stereo not given), for which the IC50 in assay [1] worked out at 23.4 µM; in assay [2], 11.2 µM; in assay [3] it was 5.97 µM; in assay [4], 22.5 µM; in assay [5] it was 72.3 µM.

In the case of `CC(C)NC(=O)OCCC1(O)C(=O)OCc2c1cc1n(c2=O)Cc2cc3ccccc3nc2-1` (stereo not given), the IC50 in assay [1] worked out at 11 µM; in assay [2], 5.25 µM; in assay [3], 9.41 µM; in assay [4], 1.42 µM; in assay [5] it was 46.5 µM.

Turning to `CCOCOCCC1(O)C(=O)OCc2c1cc1n(c2=O)Cc2cc3ccccc3nc2-1` (stereo not given), the IC50 in assay [1] is 1.07 µM; in assay [2], 1.37 µM; in assay [3] it was 1.42 µM; in assay [4], 1.85 µM; in assay [5], 19.3 µM.

As to `COCC(=O)OCC1(O)C(=O)OCc2c1cc1n(c2=O)Cc2cc3ccccc3nc2-1` (stereo not given), the 50% inhibitory concentration (IC50) in assay [1] was 47.1 µM; in assay [2], 17.6 µM; in assay [3], 13.6 µM; in assay [4], 12.9 µM; in assay [5], more than 100 µM.

`COCC(=O)OCCC1(O)C(=O)OCc2c1cc1n(c2=O)Cc2cc3ccccc3nc2-1` (stereo not given): the IC50 is 31.8 µM in assay [1]; 6.99 µM in assay [2]; 24.5 µM in assay [3]; 6.39 µM in assay [4]; 3.05 µM in assay [5].

As to `COCCOCOCC1(O)C(=O)OCc2c1cc1n(c2=O)Cc2cc3ccccc3nc2-1` (stereo not given), the IC50 turned out to be 25.8 µM in assay [1]; 4.38 µM in assay [2]; 22.2 µM in assay [3]; 6 µM in assay [4]; 83.5 µM in assay [5].

In the case of `CC(=O)OCC1(O)C(=O)OCc2c1cc1n(c2=O)Cc2cc3ccccc3nc2-1` (stereo not given), the IC50 in assay [1] was 1.22 µM; in assay [2], 1.53 µM; in assay [3], 1.71 µM; in assay [4] it was 0.82 µM; in assay [5] it was 9.43 µM.

For the compound `CC(=O)OCCC1(O)C(=O)OCc2c1cc1n(c2=O)Cc2cc3ccccc3nc2-1` (stereo not given), the IC50 in assay [1] worked out at 7.04 µM; in assay [2], 3.99 µM; in assay [3], 5.09 µM; in assay [4] it was 4.23 µM; in assay [5], 0.98 µM.

In the case of `CCOCOCC1(O)C(=O)OCc2c1cc1n(c2=O)Cc2cc3ccccc3nc2-1` (stereo not given), the IC50 in assay [1] turned out to be 17.1 µM; in assay [2], 11.1 µM; in assay [3] it was 3.4 µM; in assay [4], 17.6 µM; in assay [5] it was 40.7 µM.

With `COCOCC1(O)C(=O)OCc2c1cc1n(c2=O)Cc2cc3ccccc3nc2-1` (stereo not given), the IC50 is 2.41 µM in assay [1]; 8.39 µM in assay [2]; 1.65 µM in assay [3]; 4 µM in assay [4]; 23.2 µM in assay [5].

On to `O=C1OCc2c(cc3n(c2=O)Cc2cc4ccccc4nc2-3)C1(O)CO` (stereo not given), for which the IC50 came to 17.8 µM in assay [1]; 7.19 µM in assay [2]; 3.97 µM in assay [3]; 2.17 µM in assay [4]; 11.5 µM in assay [5].

Regarding `O=C1OCc2c(cc3n(c2=O)Cc2cc4ccccc4nc2-3)C1(O)CCO` (stereo not given), the IC50 came out at 2.5 µM in assay [1]; 4.47 µM in assay [2]; 6.31 µM in assay [3]; 6.31 µM in assay [4]; 9.72 µM in assay [5].

Usually IC50 stands for the concentration needed to halve the response being measured. The low end stands for higher potency, the high end for lower potency.
